Measurements reported in US20230263822A1, “MODULATION OF FACTOR 11 EXPRESSION” (Ionis Pharmaceuticals, Inc., priority 2008, published 2023).
Strand notation (5' to 3'): a small letter for the sugar, then the base; units joined by * are phosphorothioate-linked, units joined directly phosphodiester-linked; [ ] holds rarer units or linkages, { } end groups; capitals alone tell only the bases. e = 2'-O-(2-methoxyethyl) (MOE); [5mC] = 5-methylcytosine; d = 2'-deoxy (DNA)

What was measured:
human Factor 11 mRNA [1] = experiment: Dose-dependent inhibition of human Factor 11 in HepG2 cells, electroporation 0.7-20 uM (Example 4); format: cell-based; conditions: for percent inhibition of Factor 11 at 0.7 μM / percent inhibition of Factor 11 at 2.2 μM / percent inhibition of Factor 11 at 6.7 μM / percent inhibition of Factor 11 at 20 μM: relative to untreated control cells
Summary of the method: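 HepG2 cells electroporated with antisense gapmers at 0.7, 2.2, 6.7 and 20 μM, treated ~16 h. Factor 11 mRNA quantified by qRT-PCR (primer probe set RTS 2966), normalised to RIBOGREEN total RNA; expressed as percent inhibition versus untreated control cells.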

human Factor 11 mRNA [2] = experiment: Antisense inhibition of human Factor 11 in HepG2 cells by microwalk gapmers, lipofectin, 75 nM (Example 3); format: cell-based
Summary of the method: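 HepG2 cells (10,000/well) were transfected via lipofectin with 75 nM 20-mer MOE gapmers (phosphorothioate, 5-methyl-C) for about 24 h. Factor 11 mRNA was measured by qRT-PCR, normalized to RIBOGREEN total RNA, and given as percent inhibition versus untreated cells.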

[3] = Tolerability in Sprague-Dawley rats: kidney function, urine protein/creatinine (Example 35); conditions: for Urine protein/creatinine ratio: Sprague Dawley rats; for BUN / Creatinine: Sprague-Dawley rats, plasma
Experimental: A control group of four Sprague Dawley rats was injected subcutaneously with PBS twice per week for 6 weeks. Body weight measurements were taken before and throughout the treatment period. Urine samples were taken before the start of treatment. Three days after the last dose, urine samples were taken and the rats were sacrificed. Organ weights were measured and blood was collected for further analysis.
To evaluate the effect of kidney function, plasma concentrations of blood urea nitrogen (BUN) and creatinine were measured using an automated clinical chemistry analyzer (Hitachi Olympus AU400e, Melville, N.Y.).

human Factor 11 mRNA [4] = experiment: Antisense inhibition of human Factor 11 in HepG2 cells, electroporation, 8,000 nM (Example 30); format: cell-based; conditions: electroporation, 8,000 nM antisense oligonucleotide
Summary of the method: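 HepG2 cells electroporated with 8,000 nM 5-10-5, 5-8-5 or 6-8-6 MOE gapmers (phosphorothioate, 5-methylcytidine), ~24 h. Factor 11 mRNA quantified by qRT-PCR, normalised to RIBOGREEN total RNA. Reported as percent inhibition versus untreated cells.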

[5] = HepG2, lipofectin, ~24 h, gapmers targeted to nucleobases 656 to 704 of SEQ ID NO: 1
[6] = After treatment, 50 mg/kg s.c. twice per week for 6 weeks
[7] = Before antisense oligonucleotide treatment
[8] = HepG2 cells, lipofectin, gapmers targeted to nucleobases 1275 to 1318 of SEQ ID NO: 1
[9] = 50 mg/kg s.c. twice per week for 6 weeks

| Substance | IC50 (human Factor 11 mRNA [1]) [nM] | percent inhibition of Factor 11 at 0.7 μM (human Factor 11 mRNA [1]) [%] | percent inhibition of Factor 11 at 2.2 μM (human Factor 11 mRNA [1]) [%] | percent inhibition of Factor 11 at 6.7 μM (human Factor 11 mRNA [1]) [%] | percent inhibition of Factor 11 at 20 μM (human Factor 11 mRNA [1]) [%] | % inhibition (human Factor 11 mRNA [2]; [5]) [%] | Urine protein/creatinine ratio [3, 6] | Urine protein/creatinine ratio [3, 7] | Percent inhibition of human Factor 11 mRNA levels (human Factor 11 mRNA [4]) [%] | % inhibition (human Factor 11 mRNA [2]; [8]) [%] | BUN [3, 9] [mg/dL] | Creatinine [3, 9] [mg/dL] | % inhibition (human Factor 11 mRNA [2]; HepG2 cells, lipofectin, gapmers targeted to nucleobases 1018 to 1042 of SEQ ID NO: 1) [%] | % inhibition (human Factor 11 mRNA [2]; HepG2 cells, lipofectin, gapmers targeted to nucleobases 738 to 762 of SEQ ID NO: 1) [%] |
| --- | --- | --- | --- | --- | --- | --- | --- | --- | --- | --- | --- | --- | --- | --- |
| 416826 (antisense ATGCCCTTCATGTCTAGGTC; 5-10-5 gapmer, further chemistry not given here) [compound 416826] | 3200 | 2 | 47 | 86 | 82 | 94 | 11.4 | 1.0 |  |  |  |  |  |  |
| 412223 (antisense ACAGTTTCTGGCAGGCCTCG; 5-10-5 MOE gapmer, further chemistry not given here) [compound 412223] |  |  |  |  |  |  |  |  | 62 | 85 |  |  |  |  |
| 413482 (antisense GGACGGCATTGGTGCACAGT; 5-10-5 MOE gapmer, further chemistry not given here) [compound 413482] |  |  |  |  |  |  |  |  | 88 | 89 |  |  |  |  |
| ISIS 416850: MOE gapmer, nucleobases 1275 to 1318 of SEQ ID NO: 1 (Table 8) (antisense TGCACAGTTTCTGGCAGGCC; MOE gapmer, wing and gap sizes not given here) |  |  |  |  |  |  |  |  |  |  | 5 | 7 |  |  |
| 445522 (antisense eG*e[5mC]*eA*e[5mC]*eA*dG*dT*dT*dT*d[5mC]*dT*dG*dG*e[5mC]*eA*eG*eG*e[5mC]) [compound 445522] |  |  |  |  |  |  |  |  | 91 |  |  |  |  |  |
| 416999 (antisense GCACAGTTTCTGGCAGGCCT; 2-13-5 gapmer chemistry, further chemistry not given here) [compound 416999] | 2800 | 20 | 42 | 77 | 88 |  | 9.1 | 1.3 |  | 92 |  |  |  |  |
| 416925 (antisense GGTGCACAGTTTCTGGCAGG; 3-14-3 gapmer chemistry, further chemistry not given here) [compound 416925] | 3900 | 0 | 40 | 76 | 80 |  | 4.3 | 1.0 |  | 98 |  |  |  |  |
| ISIS 416858: MOE gapmer, nucleobases 1275 to 1318 of SEQ ID NO: 1 (Table 8) (antisense ACGGCATTGGTGCACAGTTT; MOE gapmer, wing and gap sizes not given here) |  |  |  |  |  |  |  |  |  |  | 8 | 4 |  |  |
| 412225 (antisense GCAGCGGACGGCATTGGTGC; 5-10-5 MOE gapmer, further chemistry not given here) [compound 412225] |  |  |  |  |  |  |  |  | 86 | 86 |  |  |  |  |
| 416838 (antisense GCAACCGGGATGATGAGTGC; 5-10-5 gapmer, further chemistry not given here) [compound 416838] | 5100 | 5 | 30 | 55 | 83 |  | 3.7 | 1.2 |  |  |  |  | 94 |  |
| 417002 (antisense GGTGCACAGTTTCTGGCAGG; 2-13-5 gapmer chemistry, further chemistry not given here) [compound 417002] | 2200 | 32 | 38 | 82 | 91 |  | 2.4 | 1.0 |  | 92 |  |  |  |  |
| 416864 (antisense GGCAGCGGACGGCATTGGTG; 5-10-5 gapmer, further chemistry not given here) [compound 416864] | 1400 | 32 | 65 | 78 | 90 |  | 4.0 | 1.2 | 88 | 93 |  |  |  |  |
| ISIS 417002: MOE gapmer, nucleobases 1275 to 1318 of SEQ ID NO: 1 (Table 8) (antisense GGTGCACAGTTTCTGGCAGG; MOE gapmer, wing and gap sizes not given here) |  |  |  |  |  |  |  |  |  |  | 11 | 1 |  |  |
| 416858 (antisense ACGGCATTGGTGCACAGTTT; 5-10-5 gapmer, further chemistry not given here) [compound 416858] | 5300 | 5 | 20 | 56 | 86 |  | 4.4 | 0.9 | 90 | 93 |  |  |  |  |
| 416892 (antisense GCCCTTCATGTCTAGGTCCA; 3-14-3 chimeric gapmer, further chemistry not given here) [compound 416892] | 2500 | 14 | 52 | 82 | 92 | 100 | 21.3 | 0.8 |  |  |  |  |  |  |
| 445531 (antisense eG*eG*e[5mC]*eA*eT*dT*dG*dG*dT*dG*d[5mC]*dA*d[5mC]*eA*eG*eT*eT*eT) [compound 445531] |  |  |  |  |  |  |  |  | 90 |  |  |  |  |  |
| 412206 (antisense e[5mC]*e[5mC]*eG*eT*eG*d[5mC]*dA*dT*d[5mC]*dT*dT*dT*d[5mC]*dT*dT*eG*eG*e[5mC]*eA*eT) [compound 412206] | 2700 | 22 | 39 | 81 | 94 |  |  |  | 91 |  |  |  |  | 93 |
| 412224 (antisense GCATTGGTGCACAGTTTCTG; 5-10-5 MOE gapmer, further chemistry not given here) [compound 412224] |  |  |  |  |  |  |  |  | 84 | 93 |  |  |  |  |
| ISIS 416864: MOE gapmer, nucleobases 1275 to 1318 of SEQ ID NO: 1 (Table 8) (antisense GGCAGCGGACGGCATTGGTG; MOE gapmer, wing and gap sizes not given here) |  |  |  |  |  |  |  |  |  |  | 5 | 6 |  |  |
| ISIS 416838: MOE gapmer, nucleobases 1018 to 1042 of SEQ ID NO: 1 (Table 6) (antisense GCAACCGGGATGATGAGTGC; MOE gapmer, wing and gap sizes not given here) |  |  |  |  |  |  |  |  |  |  | 4 | 5 |  |  |
| 417003 (antisense TGGTGCACAGTTTCTGGCAG; 2-13-5 gapmer chemistry, further chemistry not given here) [compound 417003] | 3900 | 0 | 34 | 75 | 89 |  | 4.8 | 0.9 |  | 89 |  |  |  |  |
| 416856 (antisense GGCATTGGTGCACAGTTTCT; 5-10-5 gapmer, further chemistry not given here) [compound 416856] | 5100 | 0 | 29 | 47 | 93 |  |  |  | 84 | 95 |  |  |  |  |
| 416825 (antisense GCCCTTCATGTCTAGGTCCA; 5-10-5 gapmer, further chemistry not given here) [compound 416825] | 1300 | 27 | 74 | 92 | 98 | 92 | 5.4 | 1.1 | 90 |  |  |  |  |  |
